Like-named read-outs stand apart in the source and are kept apart here.
Key:
[1] = oral application, cited from earlier work
[2] = Rate of dermal penetration, deuterated versus non-deuterated tolterodine (general statement); assay type: in vitro ADME; conditions: compared with non-deuterated tolterodine

SMILES | absolute bioavailability ([1]; rapid metabolisers) | absolute bioavailability ([1]; slow metabolisers) | rate of dermal penetration [2]
Cc1ccc(O)c(C(CCN(C(C)C)C(C)C)c2ccccc2)c1 (stereo not drawn) [tolterodine, N,N-diisopropyl-3-(2-hydroxy-5-methylphenyl)-3-phenylpropylamine] | 17% | 65% | –
[2H]C([2H])([2H])c1ccc(O)c(C(CCN(C(C)C)C(C)C)c2ccccc2)c1 (stereo not drawn) [deuterated tolterodine, 2-(3-diisopropylamino-1-phenylpropyl)-4-[^2H3]methyl-phenol] | – | – | considerably increased

Reference: patent US6783769B1, “Transdermal therapeutic system TTS containing tolterodine” (Schwarz Pharma AG, priority 1999, dated 2004)
